Measurements reported in patent US5843947A, “N-pyridyl carboxamides and derivatives” (priority 1994, dated 1998).

Legend:
[1] = Study of the diuretic activity (urinary volume); type: in vivo, rats; settings: 6 hours
[2] = tested on: chronic inflammation of the ear induced by repeated phorbol ester; settings: 15 days after repeated application of phorbol ester; cited from earlier work
[3] = tested on: arthritis induced by killed Mycobacterium tuberculosis (complete Freund adjuvant); experiment: Study of an activity of anti-arthritic type in rats (complete Freund adjuvant); type: in vivo, Lewis rats; settings: rat, oral, days 1 to 5; day 18
Protocol: Groups of 5 male or female Lewis rats weighing from 130 to 150 g are used. A suspension of 0.3 mg of killed Mycobacterium tuberculosis in 0.1 cm^3 of mineral oil (complete Freund adjuvant, CFA) is administered into the subplantar region of the right hind foot on day 1. The volumes of the hind feet are measured by water displacement on days 0, 1, 5, 14 and 18. The rats are weighed on days 0 and 18. The test products are suspended in carboxymethylcellulose and administered orally for 5 consecutive days, on days 1 to 5. In parallel, a control group is used in order to eliminate artefacts resulting from the handling of the animals. A group treated with a reference product (hydrocortisone) allows the test to be validated.

[4] = tested on: acute cutaneous inflammation (phorbol ester ear edema); experiment: Activity against acute cutaneous inflammation (topical), phorbol ester ear edema; type: in vivo; settings: mouse, 6 hours
Protocol: Phorbol ester (phorbol 12-myristate 13-acetate) (5 μg) is applied topically to the front and back surfaces of the right ear of the mouse 30 minutes after application of the vehicle (95% ethanol) or of the agent (1 mg). The difference in thickness between the right ear and the left ear (edema) is measured 6 hours after application.
The percentage of inhibition of cutaneous inflammation relative to a group of animals treated topically with 95% ethanol is calculated. The compound of Example 1, at a rate of 1 mg/ear, allows a 63% reduction of the inflammation. Indomethacin, taken as a reference, at a dose of 2.5 mg/ear, allows a 67% reduction of inflammation.

[5] = tested on: inflammation induced by carrageenan (plantar edema); experiment: Anti-inflammatory activity: plantar edema using carrageenan; type: in vivo, Sprague-Dawley rats; settings: rat, compounds 10 mg/kg oral 30 min before carrageenan, indomethacin 10 mg/kg
Protocol: The method used is that of plantar edema using carrageenan. The procedure used is as follows: 1% carrageenan in 0.2 ml of […] is administered into the sole of the right foot of Sprague-Dawley rats weighing 250 g on average. The volume of the paw is measured by plethysmography after one hour and after two hours.
The compounds of the invention are administered in a 10 mg/kg oral dose 30 minutes before the administration of carrageenan. A saline solution is injected into the sole of the left foot, which serves as a control.
The compounds of the invention make it possible to reduce the increase in volume of the right foot relative to that of the left foot (Table 1).

[6] = tested on: chronic inflammation of the ear induced by repeated phorbol ester; experiment: Curative activity after repeated topical application in chronic inflammation of the ear, repeated phorbol ester (PMA) for 15 days (model of psoriasis); type: in vivo; settings: mouse, 0.5 mg/ear
Protocol: Phorbol ester (1 μg) is applied topically to the front and back surfaces of the right ear of the mouse on days 0, 2, 4, 7, 9, 11 and 14. The vehicle or the agent is applied topically twice daily, on days 7, 8, 9, 10, 11, 12, 13 and 14, and once on the 15th day. On days 7, 9, 11 and 14 the vehicle or the agent is applied 30 minutes before and after the phorbol ester.
Two parameters are measured
1. Difference in thickness between the right and left ears every day and on days 0, 2, 4, 7, 9, 11 and 14, 6 hours after repeated application of the phorbol ester.
After repeated application of phorbol ester and after 15 days, the thickness reflects not only the presence of an edema and of an infiltration of lymphocyte and monocyte-macrophage neutrophil type cells in the skin tissue (inflammation) but also of an increase in the thickness of the epidermis (epidermal hyperplasia secondary to a proliferation of keratinocytes). […]
The products of the invention, in topical, curative and repeated use, inhibit, between the 8th and 10th days, the chronic inflammation of the right ear (measured, on the one hand, by the difference in thickness between the right ear and the left ear, and, on the other hand, by the difference in weight between the two ears after sacrificing the animal on the 15th day) induced by a repeated application of phorbol ester in mice.

Cc1cc(C)nc(NC(=NN)c2cnccn2)c1 [Example 25, N-(4,6-DIMETHYL-2-PYRIDYL)-2-PYRAZINECARBOXAMIDE HYDRAZONE]
increase of urinary volume (factor relative to an untreated rat) ([1]; 3 mg/kg p.o.): 2.8

cyclosporin A
topical activity in the chronic model (in words) [2]: topically active

Cc1cc(C)nc(NC(=O)Cc2cccs2)c1 [Example 1, N-(4,6-DIMETHYL-2-PYRIDYL)-2-THIENYLACETAMIDE]
reduction in the volume of the right hind foot [3]: 47%
reduction of the inflammation ([4]; 1 mg/ear): 63%

Cc1cc(C)nc(NC(=O)c2cnccn2)c1
Percentage of inhibition, 1 h [5]: 55%
Percentage of inhibition, 2 h [5]: 64%

Cc1nc(N)c(NC(=O)Cc2ccsc2)c(C)c1Br [Example 17, N-(2-AMINO-5-BROMO-4,6-DIMETHYL-3-PYRIDYL)-3-THIENYLACETAMIDE]
reduction of the difference in thickness between the two ears [6]: 60%
reduction of the weight difference ([6]; ear punches): 38%

NS(=O)(=O)c1cc(C(=O)O)c(NCc2ccco2)cc1Cl [furosemide, reference compound]
increase of urinary volume (factor), reference ([1]; rat, 5 mg/kg p.o.): 3

Cc1cc(C)nc(NC(=O)Cc2cccs2)c1 [drawing 58]
Percentage of inhibition, 1 h [5]: 63%
Percentage of inhibition, 2 h [5]: 70%

COc1ccc2c(c1)c(CC(=O)O)c(C)n2C(=O)c1ccc(Cl)cc1 [Indomethacin, reference compound]
Percentage of inhibition, 1 h [5]: 24%
Percentage of inhibition, 2 h [5]: 64%
topical activity in the chronic model (in words) [2]: topically inactive
reduction of inflammation, reference ([4]; 2.5 mg/ear): 67%

CN1C(C(=O)Nc2ccccn2)=C(O)c2ccccc2S1(=O)=O [piroxicam]
topical activity in the chronic model (in words) [2]: topically inactive
